In patent publication US20220218852A1, “NOVEL RADIOLABELLED CXCR4-TARGETING COMPOUNDS FOR DIAGNOSIS AND THERAPY” (PROVINCIAL HEALTH SERVICES AUTHORITY, priority 2019, published 2022):
Like-named read-outs stand apart in the source and are kept apart here. Positions of bridges follow the written chain, without caps; N, C: chain ends. Non-standard residues stand in square brackets, D forms with d. Residues, ends and D or L forms follow the SMILES beside them. Groups on a side chain read outwards from the residue. *: point of attachment. DOTA = O=C(O)CN1CCN(CC(=O)O)CCN(CC(=O)*)CCN(CC(=O)O)CC1; 2Nal = N[C@@H](Cc1ccc2ccccc2c1)C(=O)O; Lys(iPr) = CC(C)NCCCC[C@H](N)C(=O)O

Columns and labels:
[1] = Biodistribution in GRANTA519 tumor-bearing mice; assay type: in vivo; details: male, NOD.Cg-Rag1^tm1MomII2rg^tm1Wjl/SzJ (NRG), mouse, iv, total radioactivity
Method: (§1) For Daudi, Z138, GRANTA519 and Jeko1 xenografts, male NOD.Cg-Rag1^tm1MomII2rg^tm1Wjl/SzJ (NRG) mice were subcutaneously inoculated on the left flank with 5×10^6 cells (100 μL; 1:1 ratio of PBS/Matrigel) and tumors were grown to a size of 200-500 mm^3. For PC-3 xenografts, male NOD.Cg-Rag1^tm1MomII2rg^tm1Wjl/SzJ (NRG) mice were subcutaneously inoculated on the left flank with 5×10^6 PC-3 cells (100 μL; 1:1 ratio of PBS/Matrigel) and tumors were grown to a size of 200-400 mm^3.
(§2) The mice were euthanized via CO2 inhalation while anesthetized with isoflurane. Tissues were harvested, washed in PBS, blotted dry, weighed, and measured on a Hidex AMG Automatic Gamma Counter.

[2] = system: GRANTA519 mantle cell lymphoma xenografts; assay: Biodistribution in GRANTA519 tumor-bearing mice; assay type: in vivo
Method: as §1, §2

[3] = GRANTA519 tumour, read-out: Biodistribution GRANTA519 (tumour)
[4] = adrenals, read-out: Biodistribution Adrenals
[5] = bone, read-out: Biodistribution Bone
[6] = fat, read-out: Biodistribution Fat
[7] = intestine, read-out: Biodistribution Intestine
[8] = kidney, read-out: Biodistribution Kidney
[9] = liver, read-out: Biodistribution Liver
[10] = lung, read-out: Biodistribution Lung
[11] = muscle, read-out: Biodistribution Muscle
[12] = pancreas, read-out: Biodistribution Pancreas
[13] = spleen, read-out: Biodistribution Spleen
[14] = stomach, read-out: Biodistribution Stomach
[15] = testes, read-out: Biodistribution Testes
[16] = whole blood, read-out: Biodistribution Blood

For `CC(C)NCCCC[C@@H]1NC(=O)[C@H](Cc2ccc(O)cc2)NC(=O)[C@H](Cc2ccccc2)NC(=O)CC[C@H](C(=O)N[C@@H](CCCCNC(C)C)C(=O)N[C@@H](CCCCNC(=O)[C@H](CCC(=O)O)NC(=O)[C@H](CCC(=O)O)NC(=O)[C@H](CCC(=O)O)NC(=O)CN2CCN(CC(=O)O)CCN(CC(=O)O)CCN(CC(=O)O)CC2)C(N)=O)NC(=O)CNC(=O)[C@H](Cc2ccc3ccccc3c2)NC(=O)[C@@H](CCCNC(=N)N)NC1=O` [[^177Lu]Lu-BL02, metal not drawn] (FY[Lys(iPr)][dR][2Nal]G[dE][Lys(iPr)]K([Glu-Glu-Glu-DOTA])-NH2; lactam N-7), the tissue uptake at 1 h ([1]; GRANTA519 tumour, 1 h, read-out: Biodistribution GRANTA519 (tumour)) was 6.83 %ID/g, the tissue uptake at 1 h ([1]; GRANTA519 tumour, 1 h blocked, read-out: Biodistribution GRANTA519 (tumour)) was 0.84 %ID/g and the tissue uptake at 4 h [1, 3] was 3.22 %ID/g. The tissue uptake at 24 h [1, 3] was 1.09 %ID/g, the tissue uptake at 72 h [1, 3] was 0.353 %ID/g and the tissue uptake at 1 h ([1]; adrenals, 1 h, read-out: Biodistribution Adrenals) was 0.39 %ID/g. It also gave a tissue uptake at 1 h ([1]; adrenals, 1 h blocked, read-out: Biodistribution Adrenals) of 0.48 %ID/g, a tissue uptake at 4 h [1, 4] of 0.1 %ID/g and a tissue uptake at 24 h [1, 4] of 0.094 %ID/g. The tissue uptake at 72 h [1, 4] was 0.346 %ID/g, the tissue uptake at 1 h ([1]; bone, 1 h, read-out: Biodistribution Bone) was 0.24 %ID/g and the tissue uptake at 4 h [1, 5] was 0.09 %ID/g. The tissue uptake at 24 h [1, 5] was 0.09 %ID/g, the tissue uptake at 72 h [1, 5] was 0.061 %ID/g and the tissue uptake at 1 h ([1]; bone, 1 h blocked, read-out: Biodistribution Bone) was 0.41 %ID/g. For the same molecule, the tissue uptake at 1 h ([1]; fat, 1 h, read-out: Biodistribution Fat) was 0.08 %ID/g, the tissue uptake at 4 h [1, 6] was 0.01 %ID/g and the tissue uptake at 24 h [1, 6] was 0.008 %ID/g. For the same molecule, the tissue uptake at 72 h [1, 6] was 0.006 %ID/g, the tissue uptake at 1 h ([1]; fat, with LY2510924 7.5 μg i.p. 15 min before radiotracer, 1 h blocked, read-out: Biodistribution Fat) was 0.16 %ID/g and the tissue uptake at 1 h ([1]; heart, 1 h, read-out: Biodistribution Heart) was 0.19 %ID/g. The tissue uptake at 1 h ([1]; heart, 1 h blocked, read-out: Biodistribution Heart) was 0.4 %ID/g, the tissue uptake at 24 h ([1]; heart, read-out: Biodistribution Heart) was 0.034 %ID/g and the tissue uptake at 1 h ([1]; intestine, 1 h, read-out: Biodistribution Intestine) was 0.28 %ID/g. It also gave a tissue uptake at 1 h ([1]; intestine, 1 h blocked, read-out: Biodistribution Intestine) of 0.58 %ID/g, a tissue uptake at 24 h [1, 7] of 0.046 %ID/g and a tissue uptake at 72 h [1, 7] of 0.017 %ID/g. It also gave a tissue uptake at 1 h ([1]; kidney, 1 h, read-out: Biodistribution Kidney) of 3.91 %ID/g, a tissue uptake at 1 h ([1]; kidney, 1 h blocked, read-out: Biodistribution Kidney) of 8.63 %ID/g and a tissue uptake at 4 h [1, 8] of 2.98 %ID/g. For the same molecule, the tissue uptake at 24 h [1, 8] was 1.33 %ID/g, the tissue uptake at 72 h [1, 8] was 0.573 %ID/g and the tissue uptake at 1 h ([1]; liver, 1 h, read-out: Biodistribution Liver) was 0.96 %ID/g. It also gave a tissue uptake at 4 h [1, 9] of 0.87 %ID/g, a tissue uptake at 24 h [1, 9] of 0.635 %ID/g and a tissue uptake at 72 h [1, 9] of 0.413 %ID/g. It also gave a tissue uptake at 1 h ([1]; liver, with LY2510924 7.5 μg i.p. 15 min before radiotracer, 1 h blocked, read-out: Biodistribution Liver) of 1.07 %ID/g, a tissue uptake at 1 h ([1]; lung, 1 h, read-out: Biodistribution Lung) of 0.77 %ID/g and a tissue uptake at 1 h ([1]; lung, 1 h blocked, read-out: Biodistribution Lung) of 1.16 %ID/g. For the same molecule, the tissue uptake at 4 h [1, 10] was 0.27 %ID/g, the tissue uptake at 24 h [1, 10] was 0.117 %ID/g and the tissue uptake at 72 h [1, 10] was 0.06 %ID/g. For the same molecule, the tissue uptake at 1 h ([1]; muscle, 1 h, read-out: Biodistribution Muscle) was 0.13 %ID/g, the tissue uptake at 1 h ([1]; muscle, 1 h blocked, read-out: Biodistribution Muscle) was 0.34 %ID/g and the tissue uptake at 4 h [1, 11] was 0.04 %ID/g. The tissue uptake at 24 h [1, 11] was 0.015 %ID/g, the tissue uptake at 72 h [1, 11] was 0.007 %ID/g and the tissue uptake at 1 h ([1]; pancreas, 1 h, read-out: Biodistribution Pancreas) was 0.17 %ID/g. It also gave a tissue uptake at 24 h [1, 12] of 0.028 %ID/g, a tissue uptake at 72 h [1, 12] of 0.015 %ID/g and a tissue uptake at 1 h ([1]; pancreas, with LY2510924 7.5 μg i.p. 15 min before radiotracer, 1 h blocked, read-out: Biodistribution Pancreas) of 0.3 %ID/g. The tissue uptake at 1 h ([1]; spleen, 1 h, read-out: Biodistribution Spleen) was 0.49 %ID/g, the tissue uptake at 4 h [1, 13] was 0.28 %ID/g and the tissue uptake at 24 h [1, 13] was 0.321 %ID/g. For the same molecule, the tissue uptake at 72 h [1, 13] was 0.198 %ID/g, the tissue uptake at 1 h ([1]; spleen, with LY2510924 7.5 μg i.p. 15 min before radiotracer, 1 h blocked, read-out: Biodistribution Spleen) was 0.48 %ID/g and the tissue uptake at 1 h ([1]; stomach, 1 h, read-out: Biodistribution Stomach) was 0.1 %ID/g. The tissue uptake at 4 h [1, 14] was 0.05 %ID/g, the tissue uptake at 24 h [1, 14] was 0.206 %ID/g and the tissue uptake at 72 h [1, 14] was 0.021 %ID/g. It also gave a tissue uptake at 1 h ([1]; stomach, with LY2510924 7.5 μg i.p. 15 min before radiotracer, 1 h blocked, read-out: Biodistribution Stomach) of 0.19 %ID/g, a tissue uptake at 1 h ([1]; testes, 1 h, read-out: Biodistribution Testes) of 0.21 %ID/g and a tissue uptake at 1 h ([1]; testes, 1 h blocked, read-out: Biodistribution Testes) of 0.32 %ID/g. It also gave a tissue uptake at 24 h [1, 15] of 0.034 %ID/g, a tissue uptake at 72 h [1, 15] of 0.034 %ID/g and a tissue uptake at 1 h ([1]; whole blood, 1 h, read-out: Biodistribution Blood) of 0.5 %ID/g. For the same molecule, the tissue uptake at 4 h [1, 16] was 0.02 %ID/g, the tissue uptake at 24 h [1, 16] was 0.006 %ID/g and the tissue uptake at 72 h [1, 16] was 0.002 %ID/g. For the same molecule, the tissue uptake at 1 h ([1]; whole blood, with LY2510924 7.5 μg i.p. 15 min before radiotracer, 1 h blocked, read-out: Biodistribution Blood) was 1.14 %ID/g, the “Ratio Tumour:Blood” value ([2]; 1 h) was 14.18 and the “Ratio Tumour:Bone” value ([2]; 1 h) was 28.95. The “Ratio Tumour:Liver” value ([2]; 1 h) was 7.10, the “Ratio Tumour:Lung” value ([2]; 1 h) was 9.08 and the “Ratio Tumour:Muscle” value ([2]; 1 h) was 56.86. The “Ratio Tumour:Spleen” value ([2]; 1 h) was 14.20, the “Ratio Tumour:Blood” value ([2]; 1 h blocked) was 0.77 and the “Ratio Tumour:Bone” value ([2]; 1 h blocked) was 2.16. The “Ratio Tumour:Liver” value ([2]; 1 h blocked) was 0.78, the “Ratio Tumour:Lung” value ([2]; 1 h blocked) was 0.74 and the “Ratio Tumour:Muscle” value ([2]; 1 h blocked) was 3.18. For the same molecule, the “Ratio Tumour:Spleen” value ([2]; 1 h blocked) was 1.77, the “Ratio Tumour:Blood” value ([2]; 4 h) was 119.44 and the “Ratio Tumour:Bone” value ([2]; 4 h) was 34.26. For the same molecule, the “Ratio Tumour:Liver” value ([2]; 4 h) was 3.75, the “Ratio Tumour:Lung” value ([2]; 4 h) was 12.56 and the “Ratio Tumour:Muscle” value ([2]; 4 h) was 90.57. The “Ratio Tumour:Spleen” value ([2]; 4 h) was 11.98, the “Ratio Tumour:Blood” value ([2]; 24 h) was 206.07 and the “Ratio Tumour:Bone” value ([2]; 24 h) was 12.33. The “Ratio Tumour:Liver” value ([2]; 24 h) was 1.72, the “Ratio Tumour:Lung” value ([2]; 24 h) was 9.91 and the “Ratio Tumour:Muscle” value ([2]; 24 h) was 76.90. The “Ratio Tumour:Spleen” value ([2]; 24 h) was 3.78, the “Ratio Tumour:Blood” value ([2]; 72 h) was 126.69 and the “Ratio Tumour:Bone” value ([2]; 72 h) was 5.88. For the same molecule, the “Ratio Tumour:Liver” value ([2]; 72 h) was 0.86, the “Ratio Tumour:Lung” value ([2]; 72 h) was 6.60 and the “Ratio Tumour:Muscle” value ([2]; 72 h) was 50.64. The “Ratio Tumour:Spleen” value ([2]; 72 h) was 1.53.
